Laboratory results reported in US4225529A, “Compositions containing platinum” (Johnson, Matthey & Co., Limited, priority 1977, dated 1980).

What was measured:
[1] = tested on: S180 solid tumour; assay: antitumour activity against S180 solid tumour in mice (T/C); format: in vivo; conditions: S180, @ 10 mg/Kg, carrier water, intraperitoneal
Protocol: (§1) Complexes according to the invention were tested for antitumour activity against L-1210 leukaemia, ADJ/PC6A tumour or S180 solid tumour in mice. In the results which follow, dosages are quoted in mg/Kg body weight and the evaluation of effectiveness (% T/C) against L1210 is calculated as the median survival time of treated mice divided by the median survival time of untreated (control) mice expressed as a percentage. Thus a % T/C of 100 indicates no activity and a % T/C of greater than or equal to 125 is considered to be indicative of significant antitumour activity.
(§2) Against a solid tumour, the % T/C is a measure of tumour regression and is the percentage of tumour weight in treated mice to that in control mice. Against ADJ/PC6A and S180, several dose levels were given and ranged from lethal to non-tumour inhibitory, allowing the calculation of LD50 and ID90 (minimum dose to cause 90% tumour inhibition) in one experiment. The ratio LD50 /ID90 is the therapeutic index and is a measure of the selectivity of the compound as an anti-tumour agent. […]

[2] = tested on: L-1210 leukaemia; assay: antitumour activity against L1210 leukaemia in mice (% T/C); format: in vivo; conditions: intraperitoneal, median survival treated/control
Protocol: as §1, §2

[3] = tested on: ADJ/PC6A tumour; assay: antitumour activity against ADJ/PC6A tumour in mice (ID90, LD50, therapeutic index); format: in vivo; conditions: intraperitoneal single dose in arachis oil
Protocol: Complexes according to the invention were tested for antitumour activity against L-1210 leukaemia, ADJ/PC6A tumour or S180 solid tumour in mice. […] Thus a % T/C of 100 indicates no activity and a % T/C of greater than or equal to 125 is considered to be indicative of significant antitumour activity.
Against a solid tumour, the % T/C is a measure of tumour regression and is the percentage of tumour weight in treated mice to that in control mice. Against ADJ/PC6A and S180, several dose levels were given and ranged from lethal to non-tumour inhibitory, allowing the calculation of LD50 and ID90 (minimum dose to cause 90% tumour inhibition) in one experiment. The ratio LD50 /ID90 is the therapeutic index and is a measure of the selectivity of the compound as an anti-tumour agent. All compounds were administered intraperitoneally as a single dose suspended in arachis oil.

[4] = stability in solution; format: physicochemical
Protocol: cis-[PtI2 (n-C4 H9 NH2)2 ] (120 g, 0.20 mol) was slurried with a warm solution of silver nitrate (66 g, 0.38 mol) in water (200 ml). The mixture was stirred for 3 hours during which time the yellow suspension turned pale grey. The mixture was then treated with charcoal, stirred and filtered through a porosity 4 sinter. The residue was washed once with 30 ml of water and the washings were combined with the filtrate (total volume 300 ml).
Cis-[PtI2 (n-C3 H7 NH2)2 ] (127 g, 0.22 mol) was slurried with a warm (50° C.) solution of silver nitrate (73 g, 0.43 mol) in 130 mls of water. The mixture was stirred for 4 hours during which time the yellow suspension turned dark grey. The mixture was then treated with charcoal, stirred and filtered through a porosity 4 sinter. The residue was triturated with water (20 mls) and the filtrates combined to give a clear orange solution (total volume 150 mls).
The crude oxalto complex was recrystallised as follows. The product was added to a stirred, vigorously boiling aqueous solution of 0.1 M potassium oxalate (800 ml). The solution was boiled for 30 minutes to effect dissolution during which time the solution darkened owing to some platinum formation. The solution was then treated with charcoal, stirred, cooled to 80° C. and filtered through a porosity 4 sinter. White crystals formed on cooling the filtrate to 25° C. and after storage for 3 days at 5° C., the product was filtered off, washed with water and air dried.
The solution was concentrated to a volume of 30-40 mls, treated with charcoal and filtered through a porosity 4 sinter. A white solid formed when the solution was cool. This was filtered off on a porosity 3 sinter. More white solid was obtained when an equal volume of water was added to the ethanolic filtrate. The purified products were combined, washed with water, ethanol and dried in vacuo.

[5] = aqueous solution, on standing (tendency to darken)

**Q.** With CCN.CCN.O=C1[O][Pt][O]C1=O [Bis-(ethylamine)oxalatoplatinum(II)] as the compound, how does the “T/C (tumour weight in treated mice to that in control mice)” value [1] read?
**A.** Its value is 21%.

**Q.** Which “% T/C” value ([2]; L1210, daily dose for 9 days @ 15 mg/Kg) does the source give for CCCN.CCCN.O=C1[O][Pt][O]C1=O [Bis-(n-propylamino)oxalatoplatinum(II), Oxalatobis(n-propylamine)platinum(II)] here?
**A.** Its value is 143%.

**Q.** And the “% T/C” value ([2]; L1210, daily dose for 9 days @ 30 mg/Kg)?
**A.** The value was 143%.

**Q.** What about the “% T/C” value ([2]; L1210, single dose @ 59 mg/Kg) of the same compound?
**A.** Its value is 129%.

**Q.** For CCCCN.CCCCN.O=C(CCl)[O][Pt][O]C(=O)CCl [Cis-bis (n-butylamine) bis(chloroacetato) platinum (II)], which “% T/C” value ([2]; L1210, daily dose for 9 days @ 32 mg/kg) is on record?
**A.** The value was 136%.

**Q.** And the “% T/C” value ([2]; L1210, single dose @ 256 mg/Kg)?
**A.** Its value is 107%.

**Q.** Which results are given for CCCN.CCCN.O=C(CCl)[O][Pt][O]C(=O)CCl [Cis-bis(chloroacetato) bis(n-propylamine)platinum II]?
**A.** % T/C ([2]; L1210, daily dose for 9 days @ 6 mg/Kg): 225%; % T/C ([2]; L1210, single dose @ 12 mg/Kg): 167%; % T/C ([2]; L1210, single dose @ 24 mg/Kg): 167%

**Q.** Which results are given for CCCN.CCCN.[Cl][Pt][Cl] [Cis-bis(n-propylamine)dichloroplatinum(II)]?
**A.** % T/C ([2]; L1210, daily dose for 9 days @ 4 mg/kg): 157%; % T/C ([2]; L1210, single dose @ 8 mg/Kg): 157%

**Q.** Which “ID90 (minimum dose to cause 90% tumour inhibition)” value [3] does the source give for CCCCN.CCCCN.[Cl][Pt][Cl] [Cis-bis-(n-butylamine)dichloroplatinum(II)] here?
**A.** The value was under 10 mg/kg.

**Q.** What about the LD50 [3] of the same compound?
**A.** The LD50 was 110 mg/kg.

**Q.** And the “TI (therapeutic index, ratio LD50/ID90)” value [3]?
**A.** Its value is over 11.

**Q.** With CCCCN.CCCCN.O=C1[O][Pt][O]C1=O [Example 8, Bis (n-butylamine)oxalatoplatinum(II)] as the compound, how does the stability ([4]; boiling 0.1 M potassium oxalate) read?
**A.** Its stability is “instability”.

**Q.** Which stability ([4]; recrystallisation from hot ethanol) does the source give for CCCCCN.CCCCCN.O=C1[O][Pt][O]C1=O [Example 12, Oxalatobis(n-pentylamine)platinum(II)] here?
**A.** Its stability is “without apparent decomposition”.

**Q.** With CCCCCN.CCCCCN.[Cl][Pt][Cl] [cis-dichlorobis(1-aminopentane)platinum(II)] as the compound, how does the “ID90 (minimum dose to cause 90% tumour inhibition)” value [3] read?
**A.** The value was 37 mg/kg.

**Q.** And the LD50 [3]?
**A.** The LD50 was 92 mg/kg.

**Q.** What about the “TI (therapeutic index, ratio LD50/ID90)” value [3] of the same compound?
**A.** The value was 2.5.

**Q.** With n-butylamine diaquo complex [Example 1] as the compound, how does the stability [4, 5] read?
**A.** Its stability is “slow decomposition to platinum”.

**Q.** With “n-propylamine diaquo complex [Example 2]” as the compound, how does the stability [4, 5] read?
**A.** Its stability is “slow decomposition to platinum”.
